Patent US11407763B2, “Tryptophan hydroxylase inhibitor and pharmaceutical composition including same” (GWANGJU INSTITUTE OF SCIENCE AND TECHNOLOGY, priority 2017, dated 2022)
Structures can show the parent of a compound that is named as a salt.

Each compound was assayed against TPH1 (tryptophan hydroxylase 1) (Homo sapiens (Human), UniProt P17752) (assay: TPH1 inhibitor screening assay kit (BPS Bioscience), fluorescence). Conditions: TPH1.
Type: biochemical
Experimental: In order to confirm the inhibitory effect of the compound represented by formula 1 according to the present invention on the tryptophan hydroxylase activity, it was measured using a TPH1 (tryptophan hydroxylase 1) inhibitor screening assay kit (BPS Bioscience, Catalog #72053). The TPH1 inhibitor screening assay kit was used according to the manufacturer's manual.
Particularly, the synthesized compound was dissolved in DMSO, which was added to a 96-well microplate (10 ? /well), to which TPH1 enzyme was added (40 ? /well). Then, TPH1 reaction solution was added to the microplate (50 ? /well) and the microplate was shaded with aluminum foil. The microplate was transferred to 4° C. environment, shaken carefully and incubated for 4 hours. After adding a quench solution to the microplate (10 ? /well), the TPH1 activity was measured by reading the degree of fluorescence color development with a Flexstation3 microplate reader. At this time, the excitation spectrum was 300 nm and the emission spectrum was 360 nm.

Chain of TPH1 (tryptophan hydroxylase 1) (P17752 whole entry): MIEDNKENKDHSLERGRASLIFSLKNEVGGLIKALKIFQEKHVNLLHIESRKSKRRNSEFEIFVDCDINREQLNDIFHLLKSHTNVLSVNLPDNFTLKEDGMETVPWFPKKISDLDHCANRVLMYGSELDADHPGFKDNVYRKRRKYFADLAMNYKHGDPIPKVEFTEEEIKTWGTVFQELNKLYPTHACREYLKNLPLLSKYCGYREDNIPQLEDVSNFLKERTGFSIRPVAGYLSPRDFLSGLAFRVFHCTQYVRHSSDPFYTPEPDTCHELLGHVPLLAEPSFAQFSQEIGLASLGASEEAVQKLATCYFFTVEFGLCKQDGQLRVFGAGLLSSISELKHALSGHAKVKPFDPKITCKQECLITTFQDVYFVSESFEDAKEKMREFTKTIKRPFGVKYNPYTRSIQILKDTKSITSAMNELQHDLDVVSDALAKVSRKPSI

| IC50 | SMILES |
| --- | --- |
| 36 nM | Cc1ccn(-c2cc(Cl)ccc2[C@@H](Oc2ncnc3c(-c4ccc(C[C@H](N)C(=O)O)cc4)csc23)C(F)(F)F)n1 [Example 8, (S)-2-amino-3-(4-(4-((R)-1-(4-chloro-2-(3-methyl-1H-pyrazole-1-yl)phenyl)-2,2,2-trifluoroethoxy)thieno[3,2-d]pyrimidine-7-yl)phenyl)propionic acid hydrochloride] |
| 98 nM | Cc1ccn(-c2cc(Cl)ccc2[C@@H](Oc2cc(C3=CCC(C[C@H](N)C(=O)O)CC3)nc(N)n2)C(F)(F)F)n1 (stereo partly drawn) [Example 45, (2S)-2-amino-3-(4-(2-amino-6-((R)-1-(4-chloro-2-(3-methyl-1H-pyrazole-1-yl)phenyl)-2,2,2-trifluoroethoxy)pyrimidine-4-yl)cyclohex-3-ene-1-yl)propionic acid] |
| 91 nM | Nc1nc(O[C@H](c2ccc(Cl)cc2C2=CCCOC2)C(F)(F)F)cc(C2=CCC(C[C@H](N)C(=O)O)CC2)n1 (stereo partly drawn) [Example 67, (2S)-2-amino-3-(4-(2-amino-6-((R)-1-(4-chloro-2-(5,6-dihydro-2H-pyran-3-yl)phenyl)-2,2,2-trifluoroethoxy)pyrimidine-4-yl)cyclohex-3-ene-1-yl)propionic acid] |

Same assay, conditions: TPH1 enzyme, 4 hours at 4° C., ex 300 nm / em 360 nm

| SMILES | IC50 |
| --- | --- |
| Cc1ccn(-c2cc(Cl)ccc2[C@@H](Oc2ncnc3c(-c4ccc(C[C@H](N)C(=O)O)cc4)csc23)C(F)(F)F)n1 [Example 8, (S)-2-amino-3-(4-(4-((R)-1-(4-chloro-2-(3-methyl-1H-pyrazole-1-yl)phenyl)-2,2,2-trifluoroethoxy)thieno[3,2-d]pyrimidine-7-yl)phenyl)propionic acid hydrochloride] | 36 nM |
| Cc1ccn(-c2cc(Cl)ccc2[C@@H](Oc2cc(C3=CCC(C[C@H](N)C(=O)O)CC3)nc(C)n2)C(F)(F)F)n1 (stereo partly drawn) [Example 32, (2S)-2-amino-3-(4-(6-((R)-1-(4-chloro-2-(3-methyl-1H-pyrazole-1-yl)phenyl)-2,2,2-trifluoroethoxy)-2-methylpyrimidine-4-yl)cyclohex-3-ene-1-yl)propionic acid hydrochloride] | 1820 nM |
| Cc1ccn(-c2cc(Cl)ccc2[C@@H](Oc2nc(N)nc3c(-c4ccc(C[C@H](N)C(=O)O)cc4)csc23)C(F)(F)F)n1 [Example 91, (S)-2-amino-3-(4-(2-amino-4-((R)-1-(4-chloro-2-(3-methyl-1H-pyrazole-1-yl)phenyl)-2,2,2-trifluoroethoxy)thieno[3,2-d]pyrimidine-7-yl)phenyl)propionic acid hydrochloride] | 208 nM |
| Cc1ccn(-c2cc(Cl)ccc2[C@@H](Oc2ncnc3c(C4=CCC(C[C@H](N)C(=O)O)CC4)csc23)C(F)(F)F)n1 (stereo partly drawn) [Example 30, (2S)-2-amino-3-(4-(4-((R)-1-(4-chloro-2-(3-methyl-1H-pyrazole-1-yl)phenyl)-2,2,2-trifluoroethoxy)thieno[3,2-d]pyrimidine-7-yl)cyclohex-3-ene-1-yl)propionic acid hydrochloride] | 1510 nM |
| CCOC(=O)[C@@H](N)Cc1ccc(-c2csc3c(O[C@H](c4ccc(Cl)cc4-n4ccc(C)n4)C(F)(F)F)ncnc23)cc1 [Example 22, ethyl (S)-2-amino-3-(4-(4-((R)-1-(4-chloro-2-(3-methyl-1H-pyrazole-1-yl)phenyl)-2,2,2-trifluoroethoxy)thieno[3,2-d]pyrimidine-7-yl)phenyl)propionate hydrochloride] | 993 nM |
| COc1cccc(-c2ccc([C@@H](Oc3cc(C4=CCC(C[C@H](N)C(=O)O)CC4)nc(N)n3)C(F)(F)F)cc2)c1 (stereo partly drawn) [Example 58, (2S)-2-amino-3-(4-(2-amino-6-((R)-2,2,2-trifluoro-1-(3′-methoxy-[1,1′-biphenyl]-4-yl)ethoxy)pyrimidine-4-yl)cyclohex-3-ene-1-yl)propionic acid] | 204 nM |
| Cc1ccn(-c2cc(Cl)ccc2[C@@H](Oc2cc(C3=CCC(C[C@H](N)C(=O)O)CC3)nc(N)n2)C(F)(F)F)n1 (stereo partly drawn) [Example 45, (2S)-2-amino-3-(4-(2-amino-6-((R)-1-(4-chloro-2-(3-methyl-1H-pyrazole-1-yl)phenyl)-2,2,2-trifluoroethoxy)pyrimidine-4-yl)cyclohex-3-ene-1-yl)propionic acid] | 98 nM |
| N[C@@H](Cc1ccc(-c2csc3c(OC(c4ccc(Cl)cc4-c4ccccc4)C(F)(F)F)ncnc23)cc1)C(=O)O (stereo partly drawn) [Example 26, (2S)-2-amino-3-(4-(4-(1-(5-chloro-[1,1′-biphenyl]-2-yl)-2,2,2-trifluoroethoxy)thieno[3,2-d]pyrimidine-7-yl)phenyl)propionic acid hydrochloride] | 679 nM |
| COc1cccc(-c2ccc(Cn3ccc4c(-c5ccc(C[C@H](N)C(=O)O)cc5)ncnc43)cc2)c1 [Example 23, (S)-2-amino-3-(4-(7-((3′-methoxy-[1,1′-biphenyl]-4-yl)methyl)-7H-pyrrolo[2,3-d]pyrimidine-4-yl)phenyl)propionic acid hydrochloride] | 578 nM |
| COc1cccc(-c2ccc(Cn3ccc4c(-c5ccc(C[C@H](N)C(=O)O)cc5)nc(N)nc43)cc2)c1 [Example 12, (S)-2-amino-3-(4-(2-amino-7-((3′-methoxy-[1,1′-biphenyl]-4-yl)methyl)-7H-pyrrolo[2,3-d]pyrimidine-4-yl)phenyl)propionic acid hydrochloride] | 297 nM |

More lines, now with the values ahead:

| IC50 | SMILES |
| --- | --- |
| 443 nM | Nc1nc(O[C@H](c2ccc(Cl)cc2C2=CCC(F)(F)CC2)C(F)(F)F)cc(C2=CCC(C[C@H](N)C(=O)O)CC2)n1 (stereo partly drawn) [Example 75, (2S)-2-amino-3-(4-(2-amino-6-((R)-1-(5-chloro-4′,4′difluoro-2′,3′,4′,5′-tetrahydro-[1,1′-biphenyl]-2-yl)-2,2,2-trifluoroethoxy)pyrimidine-4-yl)cyclohex-3-ene-1-yl)propionic acid hydrochloride] |
| 194 nM | Cc1ccn(-c2cc(Cl)ccc2[C@@H](Oc2cc(C3=CCC4(CC3)CNC(C(=O)O)C4)nc(N)n2)C(F)(F)F)n1 (stereo partly drawn) [Example 80, 8-(2-amino-6-((R)-1-(4-chloro-2-(3-methyl-1H-pyrazole-1-yl)phenyl)-2,2,2-trifluoroethoxy)pyrimidine-4-yl)-2-azaspiro[4.5]dec-7-ene-3-carboxylic acid] |
| 409 nM | COc1cccc(-c2ccc([C@@H](Oc3cc(C4=CCC5(CC4)CNC(C(=O)O)C5)nc(N)n3)C(F)(F)F)cc2)c1 (stereo partly drawn) [Example 89, 8-(2-amino-6-((R)-2,2,2-trifluoro-1-(3′-methoxy-[1,1′-biphenyl]-4-yl)ethoxy)pyrimidine-4-yl)-2-azaspiro[4.5]dec-7-ene-3-carboxylic acid] |
| 209 nM | Nc1nc(O[C@H](c2ccc(Cl)cc2C2=CCCOC2)C(F)(F)F)cc(C2=CCC3(CC2)CNC(C(=O)O)C3)n1 (stereo partly drawn) [Example 94, 8-(2-amino-6-((R)-1-(4-chloro-2-(5,6-dihydro-2H-pyran-3-yl)phenyl)-2,2,2-trifluoroethoxy)pyrimidine-4-yl)-2-azaspiro[4.5]dec-7-ene-3-carboxylic acid hydrochloride] |
| 307 nM | Cc1ccn(-c2cc(Cl)ccc2[C@@H](Oc2ncnc3c(C4=CCC5(CC4)CNC(C(=O)O)C5)csc23)C(F)(F)F)n1 (stereo partly drawn) [Example 84, 8-(4-((R)-1-(4-chloro-2-(3-methyl-1H-pyrazole-1-yl)phenyl)-2,2,2-trifluoroethoxy)thieno[3,2-d]pyrimidine-7-yl)-2-azaspiro[4.5]dec-7-ene-3-carboxylic acid hydrochloride] |
| 1150 nM | Nc1nc(O[C@H](c2ccc(Cl)cc2C2=CCOCC2)C(F)(F)F)cc(C2=CCC3(CC2)CNC(C(=O)O)C3)n1 (stereo partly drawn) [Example 83, 8-(2-amino-6-((R)-1-(4-chloro-2-(3,6-dihydro-2H-pyran-4-yl)phenyl)-2,2,2-trifluoroethoxy)pyrimidine-4-yl)-2-azaspiro[4.5]dec-7-ene-3-carboxylic acid hydrochloride] |
| 940 nM | Nc1nc(O[C@H](c2ccc(Cl)cc2C2=CCOCC2)C(F)(F)F)cc(C2=CCC(C[C@H](N)C(=O)O)CC2)n1 (stereo partly drawn) [Example 85, (2S)-2-amino-3-(4-(2-amino-6-((R)-1-(4-chloro-2-(3,6-dihydro-2H-pyran-4-yl)phenyl)-2,2,2-trifluoroethoxy)pyrimidine-4-yl)cyclohex-3-ene-1-yl)propionic acid] |
| 433 nM | Nc1nc(OC(c2ccc(Cl)cc2-c2ccccc2)C(F)(F)F)cc(C2=CCC(C[C@H](N)C(=O)O)CC2)n1 (stereo partly drawn) [Example 48, (2S)-2-amino-3-(4-(2-amino-6-(1-(5-chloro-[1,1′-biphenyl]-2-yl)-2,2,2-trifluoroethoxy)pyrimidine-4-yl)cyclohex-3-ene-1-yl)propionic acid hydrochloride] |

Same assay, conditions: TPH1 enzyme, 4 hours at 4° C., ex 300 nm / em 360 nm; hydrochloride

| SMILES | IC50 |
| --- | --- |
| COc1cccc(-c2ccc([C@@H](Oc3cc(C4=CCC(C[C@H](N)C(=O)O)CC4)nc(N)n3)C(F)(F)F)cc2)c1 (stereo partly drawn) [Example 34, (2S)-2-amino-3-(4-(2-amino-6-((R)-2,2,2-trifluoro-1-(3′-methoxy-[1,1′-biphenyl]-4-yl)ethoxy)pyrimidine-4-yl)cyclohex-3-ene-1-yl)propionic acid hydrochloride] | 281 nM |
| N[C@@H](Cc1ccc(-c2csc3c(O[C@H](c4ccc(Cl)cc4C4=CCCOC4)C(F)(F)F)ncnc23)cc1)C(=O)O [Example 69, (S)-2-amino-3-(4-(4-((R)-1-(4-chloro-2-(5,6-dihydro-2H-pyran-3-yl)phenyl)-2,2,2-trifluoroethoxy)thieno[3,2-d]pyrimidine-7-yl)phenyl)propionic acid hydrochloride] | 263 nM |

The remaining lines, values ahead:

| IC50 | SMILES |
| --- | --- |
| 114 nM | Cc1ccn(-c2cc(Cl)ccc2[C@@H](Oc2cc(C3=CCC(C[C@H](N)C(=O)O)CC3)nc(N)n2)C(F)(F)F)n1 (stereo partly drawn) [Example 31, (2S)-2-amino-3-(4-(2-amino-6-((R)-1-(4-chloro-2-(3-methyl-1H-pyrazole-1-yl)phenyl)-2,2,2-trifluoroethoxy)pyrimidine-4-yl)cyclohex-3-ene-1-yl)propionic acid hydrochloride] |
| 185 nM | Cc1ccn(-c2cc(Cl)ccc2[C@@H](Oc2cc(C3=CCC4(CC3)CNC(C(=O)O)C4)nc(N)n2)C(F)(F)F)n1 (stereo partly drawn) [Example 79, 8-(2-amino-6-((R)-1-(4-chloro-2-(3-methyl-1H-pyrazole-1-yl)phenyl)-2,2,2-trifluoroethoxy)pyrimidine-4-yl)-2-azaspiro[4.5]dec-7-ene-3-carboxylic acid hydrochloride] |
